Measurements published in article PMC7145299, “New Cysteine Protease Inhibitors: Electrophilic (Het)arenes and Unexpected Prodrug Identification for the Trypanosoma Protease Rhodesain” (Molecules, 2020).
Read-outs that look alike come from different tables or passages of the source.

Experiments:
[1] = biological target: T1, serine protease of the Dengue virus (DENV PR) (Dengue virus type 2, UniProt P29990); assay: Dengue virus protease inhibition assay; assay type: biochemical; conditions: 20 µM inhibitor
T1 construct: the serine protease of the Dengue virus (DENV PR)

cathepsin L [2] = biological target: T2, cathepsin L (Homo sapiens, UniProt P07711); assay: biochemical; conditions: for inhibition at 20 µM: read-out: % inhibition of Cath. L
Method: (§1) Inhibition of cathepsins and rhodesain was tested with the fluorogenic substrate Cbz-Phe-Arg-AMC as described previously [19]. First, a screening at 20 µM inhibitor concentration was performed. For compounds showing >60% inhibition at this concentration, the IC50 values were determined. […] The respective Ki values (Table 1) were determined from plots of the IC50 values against substrate concentration according to the Cheng–Prusoff relationship [46].
(§2) Enzyme assays / Rhodesain and Cathepsins
(§3) The assays were performe d as described previously [7,8] by incubating rhodesain in 190 μL
(§4) assay buffer (50 mM sodium acetate pH 5.5, 5 mM EDTA, 200 mM NaCl, 0.005% Brij) with 5 μL of an
(§5) inhibitor DMSO stoc k solution of a given concentrati on for 10 min at room te mperature. The reaction
(§6) was started by adding 5 μ L of 400 μM Z-Phe-Arg-7-amino-4-methylc umari n (Z-Phe-Arg-AMC) in
(§7) DMSO. The released AMC was excited at 380 nm and the upc oming fl uoresce nce measured at 460
(§8) nm at 25 °C over time. The final substrate concentration was 10 μM.
(§9) Quenching of the fluoresc ence of the released AMC by the inhibitors was acc ounted for as
described previously [9].
(§10) The cathepsin L assays wer e performed accordi ngly in 50 mM Tris buffer (pH 6.5, 5 mM EDTA,
(§11) 200 mM NaCl, 0.005% Brij) and 250 μM Z-Phe-Arg-AMC concentration (final conce ntration: 6.25 μM).
(§12) The cathepsin B (Calbioche m) assays were performed accordingly in 50 mM Tris buffer pH 6.5,
(§13) 5 mM EDTA, 200 mM NaCl and 0.005% Brij leading to final enzyme and substrate concentrati ons of
(§14) Final inhibitor c once ntrations ranged from 0.001 μM to 100.0 μM.

cathepsin B = cathepsin B (Homo sapiens, UniProt P07858); assay: biochemical; conditions: for inhibition at 20 µM: read-out: % inhibition of Cath. B
Method: as §1, §2, §3, §4, §5, §6, §7, §8, §9
described previously [9].
as §10, §11, §12, §13, §14

cathepsin L [3] = biological target: T2, cathepsin L; conditions: IC50 increases linearly with substrate concentration
Method: as §1, §2, §3, §4, §5, §6, §7, §8, §9
described previously [9].
as §10, §11, §12, §13, §14

[4] = test system: T. b. brucei 449 cell line; assay: T. b. brucei cell survival assay (ATPlite); assay type: cell-based; conditions: Trypanosoma brucei, after 24 h, read-out: EC50 anti-trypanosomal activity
Method: Ester 7 and acid 8 were tested for their anti-trypanosomal activity against T. brucei brucei using the ATPlite assay according to previously published procedures. […] The differences in anti-protease and anti-trypanosomal activity between the lipophilic ester 7 and the more hydrophilic acid 8 might be due to different cell permeabilities of the compounds. […]
NaCl) followed by 45 min incubation at room te mpe rature. […] 5 μL of […] Z-Phe-Arg-AMC were added to 195 μL of rhodesain-8 or rhodesai n-DMSO stock solutions and the upcoming fluorescence was measured over time to assure complete inhibition (see Figure SI1)). […]
For the dilution assay, […] of the rhodesain-8 stock solution were diluted with […] 50 mM sodiu m acetate buffer (pH 5.5 with 5 mM EDTA, 200 mM NaCl 5 mM DTT) and the recovery of the enzymatic activity was measured immediately after adding […] of 400 μM Z-Phe-Arg-AMC (see […]
90 μL HMI-9 medium containing 2500 cells/mL were distributed in 96-well microplate s (PerkinEl mer). […] 50 μL of ATPlite 1 step solution (PerkinEl mer) was added to each well of the microplate and luminesce nce measured at room temperature with an Infinite® M200 PRO plate reader (Tecan Trading AG). The measured values were plotted against the c omp ound concentrati ons top yie ld the dose-resp onse c urve. The EC50 values were calculated using GraF it version 5.013 (Erithacus Software Ltd.). […]

S. aureus sortase A = biological target: T3, S. aureus sortase A (Staphylococcus aureus, UniProt Q2FV99); assay: biochemical; conditions: 20 µM final inhibitor concentration
T3 construct: made in house

rhodesain [5] = biological target: T4, rhodesain (Trypanosoma brucei rhodesiense, UniProt Q95PM0, S297A); assay: Hydrolysis assay of ester 7 with rhodesain, LC-MS; assay type: biochemical; conditions: room temperature, 24 h
[6] = assay type: physicochemical; conditions: 800 µM in rhodesain sample buffer pH 5.5 with 10% d6-DMSO
Method: The interaction of the fluorinated inhibitors 7 and 8 with rhodesain was probed via ^19F NMR spectroscopy (Figure 3). […] To probe the rhodesain-mediated turnover of 7 into 8, we recorded time-resolved ^19F NMR spectra of 7 (800 µM) in the presence of 4 µM rhodesain (Figure 3b). During the measurement, the solution became clear and a dramatic difference in the chemical shift occurred to values identical to those observed for compound 8. The reaction was subsequently analyzed by MS (see Section 2.4), which confirmed the formation of the free acid 8.
Table S1 (DP4+)-results for product 12.
Lyophilized rhode sain was reconstituted at 4 mg/mL in 50 mM Na acetate, pH 5.5, 200 mM NaCl, 5 mM EDTA. […] After the addition of the inhibit ors at a final concentrati on of 0.1 mM, samples were analyzed by LC-MS using a nanoAcquity UP LC system (Waters Corporation) coupled to a nano-ESI-Q-TOF mass spectrome ter (Synapt G2-S HDMS, Waters Corporation). […]
For 19F NMR, c ompounds 7 (800 μM) or 8 (400 μM) were dissolved in rhodesain sample buffer (50 mM NaAcetate, pH 5.5, 200 mM NaCl, 5 mM Na-EDTA, 1 mM TCEP) with 10% d6-DMSO from a 40 mM inhibitor stock in d6-DMSO. Spectra were recorded at 303 K on a Bruker Avance 3 600 MHz spectrome ter with a Prodigy TCI cryoprobe (Bruker, Karlsruhe). Because 1H and 19F are measured in the same coil, protons wer e not decoupled during 19F acquisition. […]

[7] = assay type: physicochemical; conditions: assay buffer pH 5.5 without protease, 24 h, room temperature
rhodesain [8] = biological target: T4, rhodesain; assay: Rhodesain inhibition, fluorogenic substrate Cbz-Phe-Arg-AMC; assay type: biochemical; conditions: for % inhibition of Rhod.: 20 µM inhibitor

T4 sequence (Q95PM0 126-342 S297A): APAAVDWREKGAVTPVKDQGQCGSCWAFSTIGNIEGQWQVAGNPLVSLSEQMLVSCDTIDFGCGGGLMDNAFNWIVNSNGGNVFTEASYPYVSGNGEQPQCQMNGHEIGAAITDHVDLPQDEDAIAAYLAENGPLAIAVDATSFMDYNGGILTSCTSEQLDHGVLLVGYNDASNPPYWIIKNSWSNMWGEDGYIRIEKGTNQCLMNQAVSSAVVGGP
T2 sequence (P07711 114-333): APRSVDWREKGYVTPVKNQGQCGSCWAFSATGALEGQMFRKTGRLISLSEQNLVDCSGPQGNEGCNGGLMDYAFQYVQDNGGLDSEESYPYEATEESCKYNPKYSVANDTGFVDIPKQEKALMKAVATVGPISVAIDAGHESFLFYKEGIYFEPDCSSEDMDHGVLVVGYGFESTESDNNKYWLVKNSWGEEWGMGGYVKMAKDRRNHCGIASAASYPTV
T3 sequence (Q2FV99 whole entry): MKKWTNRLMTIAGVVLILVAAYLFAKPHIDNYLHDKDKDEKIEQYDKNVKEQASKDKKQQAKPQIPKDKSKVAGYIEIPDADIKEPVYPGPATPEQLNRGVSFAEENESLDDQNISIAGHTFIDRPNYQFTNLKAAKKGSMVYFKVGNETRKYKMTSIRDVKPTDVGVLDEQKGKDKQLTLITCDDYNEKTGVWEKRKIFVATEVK
T1 sequence (P29990 1394-1440): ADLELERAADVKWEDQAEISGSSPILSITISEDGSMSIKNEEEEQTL
T1 sequence (P29990 1476-1653): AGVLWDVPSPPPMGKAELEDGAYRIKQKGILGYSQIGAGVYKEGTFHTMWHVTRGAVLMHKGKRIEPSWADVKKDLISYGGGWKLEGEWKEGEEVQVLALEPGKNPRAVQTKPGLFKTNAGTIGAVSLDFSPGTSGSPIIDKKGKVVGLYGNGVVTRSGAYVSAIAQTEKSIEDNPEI

| SMILES | inhibition at 20 µM [1] [%] | inhibition at 20 µM (cathepsin L [2]) [%] | inhibition at 20 µM (cathepsin B) [%] | inhibition at 20 µM (S. aureus sortase A) [%] | Ki (cathepsin L [2]) [nM] | other results |
| --- | --- | --- | --- | --- | --- | --- |
| CC(C)C[C@H](NC(=O)[C@H](Cc1ccccc1)NC(=O)c1cc([N+](=O)[O-])ccc1F)C(=O)OCc1ccccc1 [Compound 6] | 12 | 50 | 21 | – | – | – |
| CC(C)C[C@H](NC(=O)[C@H](Cc1ccccc1)NC(=O)Nc1ccc(F)c([N+](=O)[O-])c1)C(=O)OCc1ccccc1 [Compound 5] | 11 | 8 | 10 | – | – | – |
| CC(C)C[C@H](NC(=O)[C@H](Cc1ccccc1)Nc1cc([N+](=O)[O-])c([N+](=O)[O-])cc1F)C(=O)OCc1ccccc1 [Compound 7] | 31 | 98 | 63 | 16 | 1600 | inhibition mode from IC50 at different substrate concentrations (cathepsin L [3]): competitive inhibition mode; EC50 [4]: 95.3 nM; conversion of ester into free acid by catalytically active rhodesain (rhodesain [5]): complete conversion; solubility [6]: poor solubility; hydrolysis of ester by reaction buffer [7]: not hydrolyzed; % inhibition of Rhod. (rhodesain [8]): 45/nd %; Ki (cathepsin B): 4400 nM |
| CC(C)C[C@H](NC(=O)[C@H](Cc1ccccc1)NC(=O)c1ccc(Cl)nc1Cl)C(=O)OCc1ccccc1 [Compound 1] | 19 | 57 | 16 | – | – | – |
| CC(C)C[C@H](NC(=O)[C@H](Cc1ccccc1)Nc1cc(Cl)ncn1)C(=O)OCc1ccccc1 [Compound 2] | 24 | 56 | 33 | – | – | – |
| CC(C)C[C@H](NC(=O)[C@H](Cc1ccccc1)Nc1cc([N+](=O)[O-])c([N+](=O)[O-])cc1F)C(=O)O [Compound 8] | – | – | – | 0 | 3000 ± 900 | EC50 [4]: 18500 nM; Ki (rhodesain [8]): 4 nM; reversibility of rhodesain inhibition (rhodesain [8]; IC50 at 10 min vs 45 min preincubation, dilution assay): reversible inhibition; Ki (cathepsin B): 1500 ± 290 nM |
| CC(C)C[C@H](NC(=O)[C@H](Cc1ccccc1)Nc1cc(F)c([N+](=O)[O-])cc1[N+](=O)[O-])C(=O)OCc1ccccc1 [Compound 3] | 28 | 60 | 22 | – | – | – |
| CC(C)C[C@H](NC(=O)[C@H](Cc1ccccc1)NC(=O)c1cccc([N+](=O)[O-])c1F)C(=O)OCc1ccccc1 [Compound 4] | 10 | 99 | 20 | 11 | 660 | inhibition mode from IC50 at different substrate concentrations (cathepsin L [3]): competitive inhibition; % inhibition of Rhod. (rhodesain [8]): 75%; Ki (rhodesain [8]; read-out: Ki Rhod.): 290 nM |
